Experimental data from US7261876B2, “Multivalent constructs for therapeutic and diagnostic applications” (Bracco International BV, priority 2002, dated 2007).
Entries after “also recorded” stand apart in the source; their conditions may differ. Positions of bridges follow the written chain, without caps; N, C: chain ends. Non-standard residues stand in square brackets, D forms with d. Residues, ends and D or L forms follow the SMILES beside them. Lys(ivDde) = CC(C)CC(NCCCC[C@H](N)C(=O)O)=C1C(=O)CC(C)(C)CC1=O

What was measured:
KDR = molecular target: T1, KDR (Homo sapiens, UniProt P35968); assay: VEGF-induced KDR receptor activation (phosphorylation) assay in HUVECs; format: cell-based; settings: for inhibition of VEGF-induced activation of KDR: concentration not given
T1 construct: host or cells: HUVEC
T1 sequence (P35968 20-1356): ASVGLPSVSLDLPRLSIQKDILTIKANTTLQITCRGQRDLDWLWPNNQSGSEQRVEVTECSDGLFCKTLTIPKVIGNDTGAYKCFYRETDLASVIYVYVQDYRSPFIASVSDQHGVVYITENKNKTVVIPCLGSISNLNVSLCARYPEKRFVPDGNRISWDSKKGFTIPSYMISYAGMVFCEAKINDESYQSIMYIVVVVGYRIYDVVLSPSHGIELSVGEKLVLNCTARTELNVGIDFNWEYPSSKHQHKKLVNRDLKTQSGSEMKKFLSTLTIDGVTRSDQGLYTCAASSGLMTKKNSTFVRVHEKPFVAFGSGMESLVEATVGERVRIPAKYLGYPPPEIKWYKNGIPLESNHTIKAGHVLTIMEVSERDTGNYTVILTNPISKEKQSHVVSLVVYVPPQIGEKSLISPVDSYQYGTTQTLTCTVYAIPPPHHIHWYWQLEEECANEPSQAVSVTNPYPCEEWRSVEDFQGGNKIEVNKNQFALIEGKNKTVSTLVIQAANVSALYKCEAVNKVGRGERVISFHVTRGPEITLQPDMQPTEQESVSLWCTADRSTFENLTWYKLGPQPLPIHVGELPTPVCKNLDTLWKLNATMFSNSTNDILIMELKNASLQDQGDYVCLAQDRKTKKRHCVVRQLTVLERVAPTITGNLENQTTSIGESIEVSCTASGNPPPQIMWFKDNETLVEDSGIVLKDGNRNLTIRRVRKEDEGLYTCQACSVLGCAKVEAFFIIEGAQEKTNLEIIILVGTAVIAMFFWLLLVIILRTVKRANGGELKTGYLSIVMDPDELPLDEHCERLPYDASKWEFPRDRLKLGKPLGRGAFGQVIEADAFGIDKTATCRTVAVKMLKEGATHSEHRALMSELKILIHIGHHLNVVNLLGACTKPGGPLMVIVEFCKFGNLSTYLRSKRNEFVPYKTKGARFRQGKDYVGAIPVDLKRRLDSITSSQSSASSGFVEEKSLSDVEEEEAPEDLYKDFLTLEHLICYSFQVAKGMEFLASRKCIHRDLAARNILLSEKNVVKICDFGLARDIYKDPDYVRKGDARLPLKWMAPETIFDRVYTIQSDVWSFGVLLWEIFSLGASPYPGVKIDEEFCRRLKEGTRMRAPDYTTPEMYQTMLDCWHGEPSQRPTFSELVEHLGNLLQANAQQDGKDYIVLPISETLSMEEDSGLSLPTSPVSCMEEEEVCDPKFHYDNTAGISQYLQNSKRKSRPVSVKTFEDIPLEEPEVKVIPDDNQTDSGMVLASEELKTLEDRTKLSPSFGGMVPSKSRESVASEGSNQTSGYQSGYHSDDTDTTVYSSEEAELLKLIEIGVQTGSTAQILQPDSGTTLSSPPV
Description: Human umbilical vein endothelial cells (HUVECs) (Biowhittaker Cat No. CC-2519) were obtained frozen on dry ice and stored in liquid nitrogen until thawing. These cells were thawed, passaged, and maintained as described by the manufacturer in EGM-MV medium (Biowhittaker Cat No. CC-3125). Cells seeded into 100 mm dishes were allowed to become confluent, then cultured overnight in basal EBM medium lacking serum (Biowhittaker Cat No. CC-3121). The next morning, the medium in the dishes was replaced with 10 mL fresh EBM medium at 37° C. containing either no additive (negative control), 5 ng/mL VEGF (Calbiochem Cat No. 676472 or Peprotech Cat No. 100-20) (positive control), or 5 ng/mL VEGF plus the indicated concentration of the KDR-binding peptide (prepared as described above). In some cases, a neutralizing anti-KDR antibody (Cat No. AF357, R&D Systems) was used as a positive control inhibitor of activation. In such cases, the antibody was pre-incubated with the test cells for 30 min at 37° C. prior to the addition of fresh medium containing both VEGF and the antibody. After incubating the dishes 5 min in a 37° C. tissue culture incubator they were washed three times with ice-cold Dulbecco's phosphate buffered saline (D-PBS) containing calcium and magnesium and placed on ice without removing the last 10 mL of D-PBS. The first dish of a set was drained and 0.5 mL of Triton lysis buffer was added (20 mM Tris base pH 8.0, 137 mM NaCl, 10% glycerol, 1% Triton X-100, 2 mM EDTA (ethylenediaminetetraacetic acid), 1 mM PMSF (phenylmethylsulfonylfluoride), 1 mM sodium orthovanadate, 100 mM NaF, 50 mM sodium pyrophosphate, 10 μg/mL leupeptin, 10 μg/mL aprotinin). The cells were quickly scraped into the lysis buffer using a cell scraper (Falcon, Cat No. 353087), dispersed by pipeting up and down briefly, and the resulting lysate was transferred to the second drained dish of the pair. Another 0.5 mL of lysis buffer was used to rinse out the first dish then transferred to the second dish, which was then also scraped and dispersed. The pooled lysate from the two dishes was transferred to a 1.5 mL Eppindorf tube. The above procedure was repeated for each of the controls and test samples (KDR-binding peptides), one at a time. The lysates were stored on ice until all the samples had been processed. At this point samples were either stored at −70° C. or processed to the end of the assay without interruption.
The lysates, either freshly prepared or frozen and thawed, were precleared by adding 20 μL of protein A-sepharose beads (Sigma 3391, preswollen in D-PBS), washed three times with a large excess of D-PBS, reconstituted with 6 mL D-PBS to generate a 50% slurry) and rocked at 4° C. for 30 min. The beads were pelleted by centrifugation for 2 min in a Picofuge (Stratgene, Cat No. 400550) at 2000×g and the supernatants transferred to new 1.5 mL tubes. 20 μg of anti-Flk-1 antibody (Santa Cruz Biotechnology, Cat No. sc-504) was added to each tube, and the tubes were incubated overnight (16–18 h) at 4° C. on a rotator to immunoprecipitate KDR. The next day 40 μL of protein A-sepharose beads were added to the tubes, which were then incubated at 4° C. for 1 h on a rotator. The beads in each tube were subsequently washed three times by centrifuging for 2 min in a Picofuge, discarding the supernatant, and dispersing the beads in 1 mL freshly added TBST buffer (20 mM Tris base pH 7.5, 137 mM NaCl, and 0.1% Tween 20). After centrifuging and removing the liquid from the last wash, 40 μL of Laemmli SDS-PAGE sample buffer (Bio-Rad, Cat No. 161-0737) was added to each tube and the tubes were capped and boiled for 5 min. After cooling, the beads in each tube were pelleted by centrifuging and the supernatants containing the immunoprecipitated KDR were transferred to new tubes and used immediately or frozen and stored at −70° C. for later analysis.
Detection of phosphorylated KDR as well as total KDR in the immunoprecipitates was carried out by immunoblot analysis. […]

Soluble KDR receptor = molecular target: T2, Soluble KDR receptor (Homo sapiens, UniProt P35968); assay: Surface plasmon resonance (Biacore 3000) of P9/P10 heterodimers; format: binding
T2 construct: Soluble KDR receptor was cross-linked to the dextran surface of a CM5 sensor chip
T2 sequence (P35968 20-764 limits assumed): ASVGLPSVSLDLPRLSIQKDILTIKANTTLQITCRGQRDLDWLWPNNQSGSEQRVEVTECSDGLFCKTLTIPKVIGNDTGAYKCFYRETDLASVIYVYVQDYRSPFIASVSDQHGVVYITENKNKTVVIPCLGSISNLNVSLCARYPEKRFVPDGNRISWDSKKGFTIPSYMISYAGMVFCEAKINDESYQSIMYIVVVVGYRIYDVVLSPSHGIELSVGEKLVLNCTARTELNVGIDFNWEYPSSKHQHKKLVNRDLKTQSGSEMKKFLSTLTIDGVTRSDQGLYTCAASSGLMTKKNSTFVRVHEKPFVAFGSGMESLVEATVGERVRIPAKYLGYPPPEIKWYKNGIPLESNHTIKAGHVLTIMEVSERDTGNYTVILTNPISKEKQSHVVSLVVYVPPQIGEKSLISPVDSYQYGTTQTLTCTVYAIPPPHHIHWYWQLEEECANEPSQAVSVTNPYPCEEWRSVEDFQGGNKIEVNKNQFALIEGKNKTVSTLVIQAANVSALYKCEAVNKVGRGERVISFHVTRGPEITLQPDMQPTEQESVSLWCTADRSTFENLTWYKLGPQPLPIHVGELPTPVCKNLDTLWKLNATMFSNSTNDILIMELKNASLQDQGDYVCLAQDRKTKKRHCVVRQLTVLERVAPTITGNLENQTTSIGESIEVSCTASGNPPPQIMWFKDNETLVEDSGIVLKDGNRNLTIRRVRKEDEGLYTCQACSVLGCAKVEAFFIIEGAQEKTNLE

[1] = molecular target: T3, KDR expressed by transfected 293H cells (Homo sapiens, UniProt P35968); assay: Competition with 125I-labeled VEGF for binding to KDR-transfected 293H cells
T3 construct: Both PCR products were digested with Not1 and ligated together to create the full-length receptor; V5-His (encoded by the vector); expressed in transfected cells; host or cells: 293H cells (Invitrogen cat. # 11631), transient lipofectamine 2000 transfection
T3 sequence (P35968 20-1356): as the sequence (P35968 20-1356) above
Description: Once prepared, the solutions were kept on ice until ready to use.
Cells were used 24 h after transfection, and to prepare the cells for the assay, they were washed 3 times with room temperature M199 medium and placed in the refrigerator. […] After incubating at 4° C. for 2 h, the plates were washed 5 times with cold binding buffer, gently blotted dry and checked under a microscope for cell loss. 100 μL of solubilizing solution (2% Triton X-100, 10% Glycerol, 0.1% BSA) was added to each well and the plates were incubated at room temperature for 30 minutes. The solubilizing solution in each well was mixed by pipeting up and down, and transferred to 1.2 mL tubes. Each well was washed twice with 100 μL of solubilizing solution and the washes were added to the corresponding 1.2 mL tube.
After washing the cells, the bound radioactivity was quantitated on a gamma counter.

With CC(=O)N[C@@H](C)C(=O)N[C@@H](CCC(N)=O)C(=O)N[C@@H](CCCNC(=N)N)C(=O)NCC(=O)N[C@@H](CC(=O)O)C(=O)N[C@@H](Cc1ccc(O)cc1)C(=O)N[C@@H](CCC(N)=O)C(=O)N[C@@H](CCC(=O)O)C(=O)N[C@@H](CCC(N)=O)C(=O)N[C@@H](Cc1ccc(O)cc1)C(=O)N[C@@H](Cc1c[nH]c2ccccc12)C(=O)N[C@@H](Cc1c[nH]cn1)C(=O)N[C@@H](CCC(N)=O)C(=O)N[C@@H](CCC(N)=O)C(=O)N[C@@H](CC(C)C)C(=O)N[C@H](C(=O)N[C@@H](CCC(=O)O)C(=O)N[C@@H](CCC(N)=O)C(=O)N[C@@H](CC(C)C)C(=O)N[C@@H](CCCCNC(CC(C)C)=C1C(=O)CC(C)(C)CC1=O)C(=O)N[C@@H](CC(C)C)C(=O)N[C@@H](CC(C)C)C(=O)NCC(=O)NCC(=O)NCC(=O)N[C@@H](CCCCN)C(N)=O)C(C)C [P19-E] (Ac-AQRGDYQEQYWHQQLVEQL[Lys(ivDde)]LLGGGK-NH2) the “inhibition of KDR activation” value (KDR; 10 μM) was “did not produce significant inhibition of KDR activation”.

CSCC[C@@H]1NC(=O)[C@H](CC(N)=O)NC(=O)[C@H](CO)NC(=O)[C@H](Cc2c[nH]c3ccccc23)NC(=O)CNC(=O)[C@@H](NC(=O)[C@H](CCC(=O)O)NC(=O)[C@H](Cc2c[nH]c3ccccc23)NC(=O)[C@H](CC(N)=O)NC(=O)[C@H](CC(=O)O)NC(=O)CNC(C)=O)CSSC[C@@H](C(=O)N[C@@H](C)C(=O)N[C@@H](CCCNC(=N)N)C(=O)N2CCC[C@H]2C(=O)N[C@@H](CC(=O)O)C(=O)N2CCC[C@H]2C(=O)NCC(=O)NCC(=O)NCC(=O)N[C@@H](CCCCN)C(N)=O)NC(=O)[C@H](Cc2ccccc2)NC(=O)[C@H](CCC(=O)O)NC(=O)[C@H](CCCCNC(CC(C)C)=C2C(=O)CC(C)(C)CC2=O)NC(=O)[C@H](CCC(N)=O)NC(=O)[C@H](Cc2ccccc2)NC1=O [P20-E] (Ac-GDNWECGWSNMFQ[Lys(ivDde)]EFCARPDPGGGK-NH2; disulfide 6-17) was tested, and the “inhibition of KDR activation” value (KDR; 10 μM) was “did not produce significant inhibition of KDR activation”.

CSCC[C@H](NC(=O)[C@H](Cc1ccc(O)cc1)NC(=O)[C@H](Cc1c[nH]c2ccccc12)NC(=O)[C@@H]1CSSC[C@H](NC(=O)[C@@H]2CCCN2C(=O)CNC(=O)[C@@H]2CCCN2C(=O)CNC(=O)[C@H](C)NC(C)=O)C(=O)N[C@@H](CCCCNC(CC(C)C)=C2C(=O)CC(C)(C)CC2=O)C(=O)NCC(=O)N[C@@H](Cc2ccc(O)cc2)C(=O)N[C@@H](CCSC)C(=O)N2CCC[C@H]2C(=O)N[C@@H](Cc2c[nH]cn2)C(=O)N[C@@H](CCC(N)=O)C(=O)N1)C(=O)NCC(=O)N[C@H](C(=O)NCC(=O)NCC(=O)NCC(=O)N[C@@H](CCCCN)C(N)=O)[C@@H](C)O [P21-E] (Ac-AGPGPC[Lys(ivDde)]GYMPHQCWYMGTGGGK-NH2; disulfide 6-14) was tested, and the “inhibition of KDR activation” value (KDR; 10 μM) was “did not produce significant inhibition of KDR activation”.

With CC[C@H](C)[C@H](NC(=O)[C@H](Cc1c[nH]c2ccccc12)NC(=O)[C@H](Cc1ccc(O)cc1)NC(=O)[C@H](CC(=O)O)NC(=O)[C@H](CC(=O)O)NC(=O)CNC(=O)CNC(=O)[C@H](Cc1ccccc1)NC(=O)[C@H](CCCNC(=N)N)NC(=O)[C@@H]1CCCN1C(=O)[C@H](Cc1ccccc1)NC(=O)[C@H](C)NC(=O)[C@H](CCC(N)=O)NC(=O)[C@H](C)NC(C)=O)C(=O)N[C@@H](CCC(N)=O)C(=O)N[C@@H](CCC(N)=O)C(=O)N[C@@H](Cc1ccc(O)cc1)C(=O)N[C@@H](CC(C)C)C(=O)N[C@@H](CCCNC(=N)N)C(=O)N[C@@H](Cc1ccc(O)cc1)C(=O)N[C@H](C(=O)N[C@@H](CC(=O)O)C(=O)NCC(=O)NCC(=O)N[C@@H](CCCCNC(=O)CCOCCOCCOCCOCCNC(=O)CON=C(C)CCC(=O)NCCOCCOCCOCCOCCC(=O)NCCCC[C@H](NC(=O)CNC(=O)CNC(=O)[C@H](CC(=O)O)NC(=O)CNC(=O)[C@H](CC(=O)O)NC(=O)[C@H](CCC(=O)O)NC(=O)[C@H](CCC(=O)O)NC(=O)[C@H](Cc1c[nH]cn1)NC(=O)[C@H](Cc1ccc(O)cc1)NC(=O)[C@H](CC(C)C)NC(=O)[C@@H](NC(=O)[C@@H](NC(=O)[C@@H](NC(=O)[C@H](CCC(=O)O)NC(=O)[C@H](Cc1c[nH]c2ccccc12)NC(=O)[C@H](Cc1ccc(O)cc1)NC(=O)[C@H](C)NC(=O)[C@H](Cc1ccc(O)cc1)NC(=O)CNC(=O)[C@H](CCC(=O)O)NC(=O)[C@@H]1CCCN1C(=O)[C@H](CCC(=O)O)NC(=O)[C@H](CCC(N)=O)NC(=O)[C@H](C)NC(C)=O)C(C)C)[C@@H](C)CC)[C@@H](C)O)C(N)=O)C(N)=O)[C@@H](C)O [Tail-to-tail dimer] the “increase in affinity over the individual monomer” value (Soluble KDR receptor) was “greater than 60 fold”, the “kd,1” value (Soluble KDR receptor) was 0.00128 s⁻¹ and the kon (Soluble KDR receptor; pH 7.65, read-out: ka,1) was 115000 M⁻¹ s⁻¹.

For AGDSWCSTEYTYCEMIGT [P4], the “competition with 125I-VEGF for binding to KDR-transfected cells” value [1] was “did not compete significantly”.

AQAFPRFGGDDYWIQQYLRYTDGG [P10] was tested, and the “inhibition of KDR activation” value (KDR; 10 μM) was “clearly able to partially block the VEGF-induced activation of KDR” and the “kd,1” value (Soluble KDR receptor) was 0.45 s⁻¹.

In the case of AQEPEGYAYWEVITLYHEEDGDGG [P9], the “kd,1” value (Soluble KDR receptor) is reported as 0.00332 s⁻¹.

With Ac-AGPKWC*EEDWYYC*MITGT-GGGK-NH2 [P5-D] the “inhibition of VEGF-induced activation of KDR” value (KDR) was “inhibit activation of KDR”.

“Ac-AGPTWC*EDDWYYC*WLFGT-GGGK-(Biotin-JJ-)-NH2 [P12-XB]” was tested, and the “percentage inhibition of 125I-labeled VEGF binding” value ([1]; 0.3 μM peptide) was 80.96±3.8% and the “percentage inhibition of 125I-labeled VEGF binding” value ([1]; 30 μM peptide) was 104.48±2.07%.

With “Ac-AQAFPRFGGDDYWIQQYLRYTDGGK-NH2 [P10-D]” the “inhibition of VEGF-induced activation of KDR” value (KDR) was “inhibit activation of KDR; also recorded: able to largely inhibit the VEGF-induced phosphorylation of KDR”.

In the case of “Ac-AQGDYVYWEIIELTGATDHTPPGGGK-NH2 [P11-D]”, the inhibition at 10 µM (KDR; HUVEC, 10 μM, read-out: inhibition of VEGF-induced KDR phosphorylation) is reported as ≥ 50% and the “inhibition of VEGF-induced activation of KDR” value (KDR) is reported as “inhibit activation of KDR”.

For “Ac-GDSRVC*WEDSWGGEVC*FRYDPGGGK-NH2 [P6-D]”, the “inhibition of VEGF-induced activation of KDR” value (KDR) was “inhibit activation of KDR”.
